From patent US11357786B2, “Synthetic disugar hydrocarbons as natural analogs to control microbial behaviors” (Syracuse University, priority 2014, dated 2022)
Entries after “also recorded” stand apart in the source; their conditions may differ.

Key:
Assay type in all cases: cell-based, Pseudomonas aeruginosa
[1] = system: PAO1 biofilm; assay: Crystal violet based static biofilm inhibition assay, DSHs in LB media (Examples 2 and 4); conditions: for Inhibition of PAO1 biofilm formation (surface attached): 160 μM, 24 h, LB media
Protocol: The ability of DSHs was tested to inhibit Pseudomonas aeruginosa adhesion, biofilm and to disperse pre-formed biofilm. To quantify the amount of PAO1/EGFP attached on the surface of micro titer plates with or without the synthesized DSHs, fluorescence emitted by green fluorescent proteins (GFP) was quantified (see supporting info for details). Crystal violet (CV) based static biofilm assay (see supporting info) was used to screen the anti-biofilm potencies of all synthesized agents. Both surface attached (SA) (FIG. 17) and total (SA+air-liquid interface) biofilm of P. aeruginosa was quantified. […] CV assays were also used to quantify the amount of P. aeruginosa biofilm remaining after dispersion experiments (FIG. 19). Initially, all agents were screen for anti-biofilm activities (both inhibition and dispersion) at 160 μM. […] All reported biofilm inhibition results are an average of 4 identical wells.
The effect that DSHs have on the adhesion of PAO1-EGFP on polystyrene surface (microtiter plate) was also examined. PAO1-EGFP is a P. aeruginosa strain that constitutively expresses green fluorescent protein. In the adhesion assays, PAO1-EGFP was grown in microtiter plate for 24-hours in LB-media with (160 μM) or without DSHs. After 24-hours, the fluorescent signal obtained from surface adhered PAO1-EGFP was measured. Percent reduction in fluorescence was calculated by comparing fluorescent signal from PAO1-EGFP grown in LB-media with the signal from wells that had DSHs (FIG. 29A). To study the effect of DSHs on biofilm formation, Pseudomonas aeruginosa (PAO1) was grown in LB-media with (160 μM) or without DSHs at 37° C. under static conditions within wells of microtiter plates. After 24 hours, the surface attached biofilms adhering to the bottom of the wells were stained with crystal-violet dye and the biofilm was quantified by measuring absorbance at 600 nm (OD600). […] Similar to inhibition, the surface attached biofilm after dispersion with DSHs was quantified with crystal-violet staining and absorbance measurement at 600 nm, except that for dispersion, biofilm was first grown for 1 day in just LB-media without any DSHs after which DSHs were added and plates were incubated for additional 24 hours followed by quantification (FIG. 29B).
Crystal violet (CV) based-biofilm inhibition assay. Inhibitory effect of all synthesized disaccharide hydrocarbons on biofilm formation of Pseudomonas aeruginosa (wild type PAO1) was determined by static biofilm inhibition assay using crystal violet staining. Overnight culture of PAO1 were sub cultured in LB media to OD600 of 0.01 and further the OD600 was allowed to reach ˜0.1. The bacterial sub-culture (200 μL) was then added into the wells of a microtiter plate. Predetermined concentrations of DSHs were added to respective wells containing sub culture by pipetting out fixed volume of sterile aqueous stock solutions (except DβL (7), SPOT, (15) and 2-ODαC (17), which were introduced as stocks prepared in H2O […] and EtOH (90:10) solutions). The microtiter plates were then wrapped in GLAD Press n′ Seal® (saran wrap) and further incubated under stationary conditions for 24 h at 37° C. After 24 h incubation, the culture media was discarded by pipetting carefully (without disrupting biofilm), the plate was then washed once with sterile water (200 μL) and allowed to dry at 37° C. for ˜30 mins. Microtiter plates were then stained with 0.1% aqueous solution of crystal violet (CV) (200 μL) at rt for ˜30 mins. Following this, the CV stain was removed and plate was again washed with sterile water (200 μL). Resultant CV stain in the well was then solubilized by adding 100 μL of 30% AcOH solution (in water) and mixing gently by pipetting.

[2] = system: 1-day old PAO1 biofilm; assay: Crystal violet assay for dispersion of 1-day old biofilm, DSHs (Examples 2 and 4); conditions: 160 μM, another 24 h
Protocol: The effect that DSHs have on the adhesion of PAO1-EGFP on polystyrene surface (microtiter plate) was also examined. PAO1-EGFP is a P. aeruginosa strain that constitutively expresses green fluorescent protein. In the adhesion assays, PAO1-EGFP was grown in microtiter plate for 24-hours in LB-media with (160 μM) or without DSHs. After 24-hours, the fluorescent signal obtained from surface adhered PAO1-EGFP was measured. Percent reduction in fluorescence was calculated by comparing fluorescent signal from PAO1-EGFP grown in LB-media with the signal from wells that had DSHs (FIG. 29A). To study the effect of DSHs on biofilm formation, Pseudomonas aeruginosa (PAO1) was grown in LB-media with (160 μM) or without DSHs at 37° C. under static conditions within wells of microtiter plates. After 24 hours, the surface attached biofilms adhering to the bottom of the wells were stained with crystal-violet dye and the biofilm was quantified by measuring absorbance at 600 nm (OD600). The percent inhibition was calculated by comparing biofilm content of wells with no added agents (control) with the biofilm content from wells that had 160 μM of DSHs (FIG. 29A). Similar to inhibition, the surface attached biofilm after dispersion with DSHs was quantified with crystal-violet staining and absorbance measurement at 600 nm, except that for dispersion, biofilm was first grown for 1 day in just LB-media without any DSHs after which DSHs were added and plates were incubated for additional 24 hours followed by quantification (FIG. 29B).
Crystal violet based assay for quantifying dispersion of 1-day old PAO1 biofilms were Plate for set up similar to inhibition assay with a slight modification. Wells of the micro-titer plate was inoculated with (200 μL) bacterial subculture (PAO1 subculture OD600 ˜0.1). The plates were incubated at 37° C. for 24 hours to allow biofilm formation. After 24 hours, bacterial culture was gently pipetted out and appropriate volume of DSH were added followed by addition of fresh LB medium (200 μL). The microtiter plate was incubated for an additional 24 hours at 37° C., following which, similar to work up of inhibition assay, culture was removed, wells were washed and CV-dye was introduced, followed by washing and destaining with 30% AcOH solution in water and quantification at 600 nm. Here again, only the surface attached biofilm dispersed was reported by comparing wells with DSHs with wells with no agent.
Dose dependence assays for biofilm inhibition and dispersion. […] Both for biofilm inhibition and dispersion, predetermined volumes of DSH stocks were added to the assigned wells to span a concentration range between 0.5 μM-170 μM. Percent biofilm inhibition of dispersion was calculated by comparing to wells with no agent. The percent biofilm inhibition or dispersion was plotted versus concentration of DSHs. The linear values were logarithmically curve fitted using equation […]. The half maximal inhibitory concentration for both biofilm inhibition and dispersion (IC50 and DC50) were thus obtained.

[3] = system: nonswarming P. aeruginosa mutant rhlA; assay: Swarming motility of nonswarming rhlA mutant on soft agar (reactivation / agonist assay); conditions: 85 μM in soft agar (0.5%), 24 h
Excerpt: Using nonswarming mutant to screen for swarming agonists and wild type P. aeruginosa for swarming antagonists. The transposon mutant, rhlA (genotype, rhlA-E08:ISphoA/hah)39 of P. aeruginosa (PAO1), that impairs the gene that is responsible for synthesizing rhamnolipids is completely incapable of a swarming motility. […] Based on this inference, a rhlA mutant was used in a swarming experiment to screen the saccharide-hydrocarbons for agonists that can reactivate the swarming motility of rhlA.
(§1) Swarm agar plates were based on M8 medium supplemented with 0.2% glucose, 0.5% casamino acid, 1 mM MgSO4 and […]. 17 For each set of experiment all the swarm plates were poured from same batch of agar and allowed to dry for 1 h before inoculation of bacteria. Bacterial culture (3 μl) (wild type PAO1 or rhlA mutant) with OD600 between […] was inoculated on the solidified agar plates. Swarm agar plates were incubated at 37° C. for 12 h and then incubated for additional 12 h at room temp. Chronological images of swarm plates were taken using a camera. To measure swarming area, sizes of the petridish in all swarming images were adjusted to a pre-assigned diameter and images were printed on copying paper (Xerox-business 4200). Weight of a 1 cm^2 copy paper square was roughly ˜8.0 mg. swarming images on the copy paper were cut and weighed, the swarm area was calculated by dividing the weight of image by weight of 1 cm^2 square (8 mg).
(§2) Swarm agar plates were made using M8 medium supplemented with 0.2% glucose, 0.5% casamino acid, 1 mM MgSO4 and solidified with 0.5% Bacto agar. 24 Bacterial culture with OD600 between 0.4 to 0.6 was inoculated as 3 μl aliquots. Swarm agar plates were incubated at 37° C. for 12 h and then incubated for additional 12 h at rt. For each set of experiment all the swarm plates were poured from same batch of agar and allowed to dry for 1 h before inoculation of bacteria.

[4] = system: wild type PAO1; assay: Swarming motility of wild type PAO1 on soft agar (antagonist assay)
Protocol: In contrast, the wild type P. aeruginosa produces the rhamnolipids and is capable of swarming on soft agar gel (˜0.5% agar). […] We note that saccharide hydrocarbons may also promote the swarming motility, but such promotions are less unambiguous than the inhibition for wild type PAO1. Such promotion will be unambiguous in the agonist assay using the nonswarming mutant rhlA.
as §1, §2

[5] = system: PAO1 biofilm; assay: Crystal violet dye based biofilm inhibition assay, maltose derivatives (Example 1); conditions: 110 μM, 24 h, CV assay
Protocol: A crystal violet (CV) assay was used to measure the amount of PAO1 biofilm formed after 24 h of bacterial inoculation. The fluorescence of green fluorescent proteins (GFP) expressed by PAO1-GFP was measured to directly quantify bacterial adhesion on polystyrene black 96 well plates with and without maltose derivatives after 2 h of bacterial inoculation. To evaluate the potential of maltose derivatives as both anti-biofilm and anti-adhesion agents, they were compared to a brominated furanone (BF8) known to inhibit biofilm formation, and two generic surfactants, sodium dodecyl sulfate (SDS) and tetra (ethylene glycol) monododecyl ether (C12EG4OH). […] P. aeruginosa strain PAO1-EGFP that constitutively producing green fluorescent protein was allowed to form biofilm on sterile steel coupons.
Inhibitory effect of all the maltose hydrocarbons on P. aeruginosa biofilm formation was determined by crystal violet dye based biofilm inhibition assays. Overnight culture of wild type P. aeruginosa (PAO1) was sub cultured to an OD600 of 0.01 into the 95:5 M9+:Lb medium. 200 μL of the sub culture was aliquoted into the wells of 96 well polystyrene microtiter plate when it reached the OD600 of 0.1. Predetermined concentrations of the test compounds were then added to the respective wells containing sub culture. Sample plates were wrapped in GLAD Press n′ Seal® followed by incubation under stationary conditions for 24 h at 37° C. After incubation the media was discarded and the plates were washed with water and dried for 1 h at 37° C. The sample plates were stained with 200 μL of 0.1% aqueous solution of crystal violet (CV) and followed by incubation at ambient temperature for 20 min. The CV stain was then discarded and the plates were washed with water. The remaining biofilm adhered stain was re-solubilized with 200 μL of 30% acetic acid. After the stain was dissolved (15 minutes), 100 μL of the solubilized CV was transferred from each well into the corresponding wells of a new polystyrene microtiter dish. Biofilm inhibition was quantified by measuring the OD600 of each well in which a negative control lane wherein no biofilm was formed served as a background and was subtracted out. The percent inhibition was calculated by the comparison of the OD600 for biofilm grown in the absence of compound (control) versus biofilm grown in the presence of compound under identical conditions.
Predetermined amounts maltose derivatives stock solution was added to the 200 μL bacterial culture in 96 well plate so that the final concentration of the agent reaches the desired values of 1, 5, 10, 20, 40, 85, 113, 140 μM. Biofilm inhibition and dispersion assay was carried as described previously.

Compound | Inhibition of PAO1 biofilm formation (surface attached) [1] | Inhibition of PAO1 biofilm formation (surface attached) ([1]; listed as 17: 2-ODαC, 160 µM) | Dispersion of 24-h old PAO1 biofilm [2] | Swarming motility of rhlA mutant [3] | Swarming motility of wild type PAO1 ([4]; 85 μM in soft agar, 24 h) | Effect on PAO1 swarming ([4]; concentration not given) | Inhibition of PAO1 biofilm formation (surface attached) ([1]; listed as 16: 2-ODβC, 160 µM) | Anti-biofilm activity (biofilm inhibition) ([1]; concentration not given) | Inhibition of PAO1 biofilm [5] [%]
CCCCCCCCCCC(CCCCCCCC)CO[C@H]1O[C@H](CO)[C@@H](O[C@@H]2O[C@H](CO)[C@@H](O)[C@H](O)[C@H]2O)[C@H](O)[C@H]1O (stereo partly drawn) [2-ODαC (17), 2-octyl-dodecyl-α-cellobioside] | not active for biofilm inhibition or dispersion | ineffective at biofilm inhibition | not active for biofilm inhibition or dispersion | – | – | – | – | – | –
CCCCCCCCCCC(CCCCCCCC)CO[C@@H]1O[C@H](CO)[C@@H](O[C@@H]2O[C@H](CO)[C@@H](O)[C@H](O)[C@H]2O)[C@H](O)[C@H]1O (stereo partly drawn) [2-ODβC (16), 2-octyl-dodecyl-β-cellobioside] | – | – | not active for biofilm inhibition or dispersion | no apparent effect on rhlA | inhibited the swarming motility of wild type PAO1 | did exhibit inhibition of PAO1 swarming; also recorded: inhibits the swarming activities of PAO1; also recorded: PAO1 swarming inhibitors | ineffective at biofilm inhibition | not effective at inhibiting the biofilm formation | –
CCCCCCCCCCC(CO[C@@H]1O[C@H](CO)[C@@H](O[C@H]2O[C@H](CO)[C@@H](O)[C@H](O)[C@H]2O)[C@H](O)[C@H]1O)Cc1ccc(C(C)(C)C)cc1 (stereo partly drawn) [4-tBuBDβM, 4-tertiary butyl benzyl dodecyl β-maltoside] | – | – | – | did not exhibit any significant activation of swarming | – | – | – | – | 74
benzyl decyl β-maltoside [BDeβM] | – | – | – | swarming motility with without well-defined tendrils | – | – | – | – | 50
